Assay results published in ChEMBL document CHEMBL5212743, “Selectivity Literature for EUbOPEN Chemogenomics Library wave 3” (2023).

Legend:
[1] = target: T1, Receptor-interacting serine/threonine-protein kinase 4 (Homo sapiens) (UniProt P57078); test: Selectivity interaction (KinomeScan (DiscoverX)) EUB0000178b RIPK4; conditions: at 1 µM
T1 sequence (whole entry): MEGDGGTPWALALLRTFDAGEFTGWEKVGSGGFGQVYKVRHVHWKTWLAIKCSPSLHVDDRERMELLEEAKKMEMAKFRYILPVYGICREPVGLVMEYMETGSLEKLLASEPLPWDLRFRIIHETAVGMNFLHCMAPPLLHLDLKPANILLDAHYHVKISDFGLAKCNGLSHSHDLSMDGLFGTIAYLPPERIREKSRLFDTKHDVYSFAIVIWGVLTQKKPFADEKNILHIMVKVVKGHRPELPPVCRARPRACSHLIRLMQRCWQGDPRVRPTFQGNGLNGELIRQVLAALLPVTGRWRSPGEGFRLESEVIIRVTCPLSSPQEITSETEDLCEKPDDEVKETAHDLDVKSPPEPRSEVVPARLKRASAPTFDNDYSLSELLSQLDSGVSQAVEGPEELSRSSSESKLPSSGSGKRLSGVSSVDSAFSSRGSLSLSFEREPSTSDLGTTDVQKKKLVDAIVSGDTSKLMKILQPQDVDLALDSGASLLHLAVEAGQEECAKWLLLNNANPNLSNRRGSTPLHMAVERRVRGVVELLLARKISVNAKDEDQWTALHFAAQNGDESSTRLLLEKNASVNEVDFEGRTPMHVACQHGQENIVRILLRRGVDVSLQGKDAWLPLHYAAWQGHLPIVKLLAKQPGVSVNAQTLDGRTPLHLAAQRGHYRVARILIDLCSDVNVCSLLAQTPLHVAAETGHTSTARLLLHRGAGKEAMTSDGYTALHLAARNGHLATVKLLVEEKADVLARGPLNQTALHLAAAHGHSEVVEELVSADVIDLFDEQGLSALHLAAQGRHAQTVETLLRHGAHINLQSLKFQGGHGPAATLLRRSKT

[2] = target: T2, Phosphatidylinositol 5-phosphate 4-kinase type-2 gamma (Homo sapiens) (UniProt Q8TBX8); test: Selectivity interaction (KinomeScan (DiscoverX)) EUB0000178b PIP4K2C; conditions: at 1 µM
T2 sequence (whole entry): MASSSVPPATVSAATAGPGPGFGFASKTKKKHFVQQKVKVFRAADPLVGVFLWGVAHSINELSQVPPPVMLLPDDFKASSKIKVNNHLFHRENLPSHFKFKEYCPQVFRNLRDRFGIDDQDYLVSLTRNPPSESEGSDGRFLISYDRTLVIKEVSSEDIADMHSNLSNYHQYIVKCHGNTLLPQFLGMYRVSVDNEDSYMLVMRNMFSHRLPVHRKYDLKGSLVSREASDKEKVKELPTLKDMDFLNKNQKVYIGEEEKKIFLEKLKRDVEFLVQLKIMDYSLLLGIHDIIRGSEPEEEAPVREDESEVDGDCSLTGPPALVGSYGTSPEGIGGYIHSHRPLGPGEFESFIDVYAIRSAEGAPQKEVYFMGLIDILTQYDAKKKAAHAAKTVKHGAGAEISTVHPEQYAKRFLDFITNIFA

Aurora kinase B = Aurora kinase B (Homo sapiens, UniProt Q96GD4); test: Selectivity interaction (Enzymatic assay) EUB0000178b AURKB
Chain of Aurora kinase B (Q96GD4 whole entry): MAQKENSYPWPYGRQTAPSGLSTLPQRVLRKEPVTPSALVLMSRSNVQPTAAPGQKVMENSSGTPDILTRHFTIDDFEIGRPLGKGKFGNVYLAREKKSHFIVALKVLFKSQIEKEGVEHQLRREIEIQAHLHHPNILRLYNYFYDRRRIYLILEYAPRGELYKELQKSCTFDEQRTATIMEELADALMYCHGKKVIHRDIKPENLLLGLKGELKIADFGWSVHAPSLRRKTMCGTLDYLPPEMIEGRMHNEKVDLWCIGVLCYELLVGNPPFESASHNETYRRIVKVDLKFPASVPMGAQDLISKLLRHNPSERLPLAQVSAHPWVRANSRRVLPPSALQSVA

[3] = target: STE20-like serine/threonine-protein kinase (Homo sapiens, UniProt Q9H2G2); test: Selectivity interaction (KinomeScan (DiscoverX)) EUB0000698a SLK; conditions: at 10 µM
Chain of STE20-like serine/threonine-protein kinase (Q9H2G2 whole entry, looked up): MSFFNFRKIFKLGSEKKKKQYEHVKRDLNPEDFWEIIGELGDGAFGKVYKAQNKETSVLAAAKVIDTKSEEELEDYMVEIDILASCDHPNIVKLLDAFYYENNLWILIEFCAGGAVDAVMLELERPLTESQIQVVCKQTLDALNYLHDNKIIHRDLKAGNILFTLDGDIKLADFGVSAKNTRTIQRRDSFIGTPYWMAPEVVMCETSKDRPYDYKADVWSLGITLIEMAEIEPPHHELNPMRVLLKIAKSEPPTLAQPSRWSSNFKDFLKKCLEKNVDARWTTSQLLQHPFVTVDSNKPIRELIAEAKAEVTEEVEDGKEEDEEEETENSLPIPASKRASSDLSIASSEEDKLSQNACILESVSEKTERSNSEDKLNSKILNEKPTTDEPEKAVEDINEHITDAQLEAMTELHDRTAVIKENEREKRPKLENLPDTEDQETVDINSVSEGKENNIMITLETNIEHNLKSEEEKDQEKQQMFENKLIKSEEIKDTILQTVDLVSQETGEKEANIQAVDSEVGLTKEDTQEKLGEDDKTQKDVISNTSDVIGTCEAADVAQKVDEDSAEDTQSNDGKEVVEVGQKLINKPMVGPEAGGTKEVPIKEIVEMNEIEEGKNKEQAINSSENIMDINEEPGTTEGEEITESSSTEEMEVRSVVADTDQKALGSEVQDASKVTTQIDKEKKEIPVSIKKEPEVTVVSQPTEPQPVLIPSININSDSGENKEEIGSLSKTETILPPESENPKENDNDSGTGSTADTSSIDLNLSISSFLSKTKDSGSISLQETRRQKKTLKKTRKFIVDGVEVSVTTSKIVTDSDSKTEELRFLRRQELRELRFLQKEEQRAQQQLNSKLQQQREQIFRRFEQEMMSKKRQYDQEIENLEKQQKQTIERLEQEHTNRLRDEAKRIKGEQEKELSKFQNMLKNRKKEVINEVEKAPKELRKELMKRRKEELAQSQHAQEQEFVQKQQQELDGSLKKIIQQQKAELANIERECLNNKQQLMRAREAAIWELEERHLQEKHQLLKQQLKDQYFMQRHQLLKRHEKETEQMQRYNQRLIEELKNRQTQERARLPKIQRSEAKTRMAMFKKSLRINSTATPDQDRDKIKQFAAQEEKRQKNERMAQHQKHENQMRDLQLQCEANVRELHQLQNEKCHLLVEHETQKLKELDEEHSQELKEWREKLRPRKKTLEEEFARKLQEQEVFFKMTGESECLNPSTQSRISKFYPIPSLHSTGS

[4] = target: BMP-2-inducible protein kinase (Homo sapiens) (UniProt Q9NSY1); test: Selectivity interaction (KinomeScan (DiscoverX)) EUB0000698a BMP2K; conditions: at 10 µM
Chain of BMP-2-inducible protein kinase (Homo sapiens) (Q9NSY1 whole entry, looked up): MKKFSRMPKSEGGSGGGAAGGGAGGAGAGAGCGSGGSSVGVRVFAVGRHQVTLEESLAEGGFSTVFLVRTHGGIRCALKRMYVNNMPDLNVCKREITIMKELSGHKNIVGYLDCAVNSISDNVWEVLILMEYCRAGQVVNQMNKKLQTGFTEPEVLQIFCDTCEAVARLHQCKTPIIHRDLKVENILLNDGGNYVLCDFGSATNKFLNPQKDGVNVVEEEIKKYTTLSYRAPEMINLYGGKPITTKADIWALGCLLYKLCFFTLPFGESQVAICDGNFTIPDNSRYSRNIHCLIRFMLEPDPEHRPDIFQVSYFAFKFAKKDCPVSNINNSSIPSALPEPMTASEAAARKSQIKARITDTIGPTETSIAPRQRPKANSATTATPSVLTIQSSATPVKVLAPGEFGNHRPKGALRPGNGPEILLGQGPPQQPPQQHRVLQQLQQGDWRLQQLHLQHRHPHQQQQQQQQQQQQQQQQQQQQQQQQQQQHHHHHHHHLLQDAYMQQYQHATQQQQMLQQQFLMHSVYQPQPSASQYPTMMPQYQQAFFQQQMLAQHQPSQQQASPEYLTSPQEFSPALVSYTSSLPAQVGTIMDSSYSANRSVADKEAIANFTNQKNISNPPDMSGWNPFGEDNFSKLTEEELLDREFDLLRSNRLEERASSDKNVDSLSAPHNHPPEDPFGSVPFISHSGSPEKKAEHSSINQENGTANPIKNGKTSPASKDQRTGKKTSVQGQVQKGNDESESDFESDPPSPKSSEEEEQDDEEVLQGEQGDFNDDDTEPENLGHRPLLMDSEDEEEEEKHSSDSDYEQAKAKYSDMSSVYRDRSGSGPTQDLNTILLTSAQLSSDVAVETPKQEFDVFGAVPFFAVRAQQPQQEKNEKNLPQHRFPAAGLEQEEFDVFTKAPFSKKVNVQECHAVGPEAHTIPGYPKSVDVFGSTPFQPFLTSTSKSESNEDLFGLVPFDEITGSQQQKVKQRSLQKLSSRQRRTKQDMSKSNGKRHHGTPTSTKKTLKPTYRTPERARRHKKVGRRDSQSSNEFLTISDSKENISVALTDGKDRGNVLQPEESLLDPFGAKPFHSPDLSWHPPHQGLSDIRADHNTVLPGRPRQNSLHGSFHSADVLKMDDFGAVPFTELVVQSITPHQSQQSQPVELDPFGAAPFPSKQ

[5] = target: T3, Homeodomain-interacting protein kinase 4 (Homo sapiens) (UniProt Q8NE63); conditions: at 1 µM
T3 sequence (whole entry): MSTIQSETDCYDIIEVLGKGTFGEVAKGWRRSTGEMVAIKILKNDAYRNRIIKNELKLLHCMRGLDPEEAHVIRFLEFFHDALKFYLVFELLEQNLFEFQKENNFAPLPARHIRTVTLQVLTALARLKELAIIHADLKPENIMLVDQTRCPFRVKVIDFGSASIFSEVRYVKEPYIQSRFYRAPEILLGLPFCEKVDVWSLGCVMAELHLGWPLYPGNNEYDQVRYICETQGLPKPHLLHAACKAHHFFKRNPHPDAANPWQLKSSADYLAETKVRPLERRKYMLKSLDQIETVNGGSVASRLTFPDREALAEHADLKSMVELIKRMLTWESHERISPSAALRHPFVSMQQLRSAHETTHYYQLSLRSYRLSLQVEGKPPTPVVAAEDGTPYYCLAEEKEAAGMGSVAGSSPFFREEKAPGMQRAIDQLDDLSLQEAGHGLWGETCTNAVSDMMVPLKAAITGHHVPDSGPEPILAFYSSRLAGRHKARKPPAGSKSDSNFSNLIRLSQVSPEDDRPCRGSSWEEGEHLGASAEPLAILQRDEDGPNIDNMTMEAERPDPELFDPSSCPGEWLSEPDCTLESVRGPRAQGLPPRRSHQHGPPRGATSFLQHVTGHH

Focal adhesion kinase 1 = Focal adhesion kinase 1 (Homo sapiens, UniProt Q05397); test: Selectivity interaction (KinomeScan (DiscoverX)) EUB0000702a PTK2; conditions: at 1 µM
Chain of Focal adhesion kinase 1 (Q05397 2-1052 limits assumed): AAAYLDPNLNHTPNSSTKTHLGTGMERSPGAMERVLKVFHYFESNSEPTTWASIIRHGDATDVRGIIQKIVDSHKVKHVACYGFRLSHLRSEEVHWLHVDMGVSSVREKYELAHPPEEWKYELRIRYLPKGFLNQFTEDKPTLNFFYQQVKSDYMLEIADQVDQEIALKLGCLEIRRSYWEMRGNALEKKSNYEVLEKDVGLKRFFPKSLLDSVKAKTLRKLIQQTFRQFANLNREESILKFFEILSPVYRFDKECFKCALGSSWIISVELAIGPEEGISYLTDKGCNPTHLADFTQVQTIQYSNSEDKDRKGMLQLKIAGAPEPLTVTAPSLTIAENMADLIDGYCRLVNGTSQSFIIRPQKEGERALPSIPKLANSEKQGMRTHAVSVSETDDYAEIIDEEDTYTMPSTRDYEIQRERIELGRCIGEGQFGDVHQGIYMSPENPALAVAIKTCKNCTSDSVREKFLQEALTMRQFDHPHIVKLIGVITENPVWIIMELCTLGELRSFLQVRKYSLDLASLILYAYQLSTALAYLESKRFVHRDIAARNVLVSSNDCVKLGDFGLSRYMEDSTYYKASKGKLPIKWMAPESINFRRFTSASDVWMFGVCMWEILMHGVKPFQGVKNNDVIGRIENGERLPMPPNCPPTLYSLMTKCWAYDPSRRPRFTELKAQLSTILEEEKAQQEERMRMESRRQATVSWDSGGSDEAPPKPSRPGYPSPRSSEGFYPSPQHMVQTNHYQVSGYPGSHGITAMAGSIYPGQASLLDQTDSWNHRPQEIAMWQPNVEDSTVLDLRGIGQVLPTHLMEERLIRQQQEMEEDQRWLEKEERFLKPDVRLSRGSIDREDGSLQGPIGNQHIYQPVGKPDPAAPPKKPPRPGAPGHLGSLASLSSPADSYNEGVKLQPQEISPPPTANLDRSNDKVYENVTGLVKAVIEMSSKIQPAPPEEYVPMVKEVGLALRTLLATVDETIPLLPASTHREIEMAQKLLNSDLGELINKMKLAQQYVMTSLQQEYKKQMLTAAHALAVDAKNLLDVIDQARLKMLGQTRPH

[6] = target: Tyrosine-protein kinase SYK (Homo sapiens, UniProt P43405); test: Selectivity interaction (KinomeScan (DiscoverX)) EUB0000702a SYK; conditions: at 1 µM
[7] = target: Tyrosine-protein kinase Lck (Homo sapiens, UniProt P06239); test: Selectivity interaction (Kinase panel (University of Dundee)) EUB0000169b LCK; conditions: at 10 µM
Chain of Tyrosine-protein kinase Lck (P06239 2-509 limits assumed): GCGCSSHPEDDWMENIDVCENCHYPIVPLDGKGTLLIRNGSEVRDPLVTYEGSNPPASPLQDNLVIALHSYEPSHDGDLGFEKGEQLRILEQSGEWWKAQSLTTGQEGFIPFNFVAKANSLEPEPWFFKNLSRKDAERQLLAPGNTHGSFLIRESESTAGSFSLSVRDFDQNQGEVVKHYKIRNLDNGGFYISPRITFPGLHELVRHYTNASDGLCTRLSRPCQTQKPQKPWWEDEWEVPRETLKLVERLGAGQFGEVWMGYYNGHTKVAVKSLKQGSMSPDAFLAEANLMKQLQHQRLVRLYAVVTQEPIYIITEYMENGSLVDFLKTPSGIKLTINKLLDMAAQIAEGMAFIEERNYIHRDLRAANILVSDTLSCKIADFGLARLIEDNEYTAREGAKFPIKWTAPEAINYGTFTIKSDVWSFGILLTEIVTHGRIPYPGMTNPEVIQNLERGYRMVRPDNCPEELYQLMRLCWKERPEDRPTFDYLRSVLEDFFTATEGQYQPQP

[8] = target: Dual specificity mitogen-activated protein kinase kinase 1 (Homo sapiens, UniProt Q02750); test: Selectivity interaction (Kinase panel (University of Dundee)) EUB0000169b MAP2K1; conditions: at 10 µM
Chain of Dual specificity mitogen-activated protein kinase kinase 1 (Q02750 whole entry): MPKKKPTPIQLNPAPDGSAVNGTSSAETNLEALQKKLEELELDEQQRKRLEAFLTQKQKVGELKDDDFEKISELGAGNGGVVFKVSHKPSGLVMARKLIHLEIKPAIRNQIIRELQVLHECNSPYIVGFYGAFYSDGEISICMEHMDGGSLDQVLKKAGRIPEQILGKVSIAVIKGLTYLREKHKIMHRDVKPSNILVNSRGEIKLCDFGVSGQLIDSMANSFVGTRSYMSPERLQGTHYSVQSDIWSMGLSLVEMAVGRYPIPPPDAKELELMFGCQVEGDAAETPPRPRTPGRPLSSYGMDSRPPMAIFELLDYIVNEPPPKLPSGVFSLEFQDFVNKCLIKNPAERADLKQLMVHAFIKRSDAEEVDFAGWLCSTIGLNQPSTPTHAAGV

[9] = target: T4, Serine/threonine-protein kinase Sgk1 (Homo sapiens) (UniProt O00141); test: Selectivity interaction (Kinase panel (University of Dundee)) EUB0000169b SGK1; conditions: at 10 µM
T4 sequence (whole entry): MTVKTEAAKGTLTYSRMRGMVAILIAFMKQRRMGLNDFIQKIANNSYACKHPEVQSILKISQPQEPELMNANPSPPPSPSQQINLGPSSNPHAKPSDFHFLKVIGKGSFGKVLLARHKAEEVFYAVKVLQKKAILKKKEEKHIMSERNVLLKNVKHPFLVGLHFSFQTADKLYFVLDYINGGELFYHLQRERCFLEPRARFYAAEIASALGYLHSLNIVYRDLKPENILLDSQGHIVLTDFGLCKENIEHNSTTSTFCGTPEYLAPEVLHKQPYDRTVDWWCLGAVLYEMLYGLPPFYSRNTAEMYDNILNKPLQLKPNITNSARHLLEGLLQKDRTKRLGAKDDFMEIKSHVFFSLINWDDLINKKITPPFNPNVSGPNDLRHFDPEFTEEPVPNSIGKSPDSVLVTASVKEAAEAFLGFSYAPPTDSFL

[10] = target: cAMP-dependent protein kinase catalytic subunit alpha (Homo sapiens, UniProt P17612); test: Selectivity interaction (Kinase panel (University of Dundee)) EUB0000169b PRKACA; conditions: at 10 µM

Q: `CN1C(=O)c2sccc2N(C)c2nc(Nc3ccc(S(N)(=O)=O)cc3)ncc21` was tested. Which % of control [1] did it give?
A: 9.5%

Q: What about the % of control [2] of the same compound?
A: 8%

Q: And the IC50 (Aurora kinase B)?
A: 19.4 nM

Q: Which results are given for `COc1cc2ncn(-c3cc(OCc4ccccc4C(F)(F)F)c(C(N)=O)s3)c2cc1OC` [GW843682X]?
A: % of control [3]: 0.3%; % of control [4]: 1%

Q: For `CCOc1cn(-c2ccc(F)cc2C)nc1C(=O)Nc1ccc(Oc2ccnc3cc(OC)c(OC)cc23)c(F)c1`, which % of control [5] is on record?
A: < 10%

Q: For `CN(c1ccnc(CNc2nc(Nc3ccc4c(c3)CC(=O)N4)ncc2C(F)(F)F)n1)S(C)(=O)=O` [PF-00911705], which % of control (Focal adhesion kinase 1) is on record?
A: 4.9%

Q: And the % of control [6]?
A: 5.7%

Q: Which % of control [7] does the source give for `CC[C@@H]1C(=O)N(C)c2cnc(Nc3ccc(C(=O)NC4CCN(C)CC4)cc3OC)nc2N1C1CCCC1` here?
A: 55%

Q: What about the % of control [8] of the same compound?
A: 115%

Q: And the % of control [9]?
A: 80%

Q: And the % of control [10]?
A: 100%
